“Also recorded” adds a separate entry of the source. Where a name gives a salt, the structure may show the parent alone. Read-outs that look alike come from different tables or passages of the source.
What was measured:
HCV RNA replicon = HCV RNA replicon assay; type: cell-based, hepatitis C virus (HCV); conditions: for Activity (% inhibition virus control) / outcome of primary test: primary, single-dilution test; for EC50: Hepatitis C virus
Protocol: A number of […] 7-deazaneplanocin compounds were tested in vitro to determine activity against hepatitis C virus (HCV).

[1] = cytotoxicity in the HCV RNA replicon assay; conditions: for Cytotoxicity (% cell control): primary, single-dilution test
SARS virus = type: cell-based; conditions: against SARS virus
[2] = stability of the isolated compound on standing; type: physicochemical; conditions: room temperature, over several days
Vaccinia = test: microbe, parasite or virus in culture; type: cell-based, vaccinia virus
Cowpox = test: microbe, parasite or virus in culture; type: cell-based, cowpox virus
HBV strain WT = test: HBV DR Assay, strain WT; type: cell-based
PIV = test: antiviral assay, PIV in MA-104; type: cell-based, parainfluenza virus
Adeno = test: antiviral assay, Adeno in A-549; type: cell-based; conditions: unidentified adenovirus, A549, Adeno
Measles = test: antiviral assay, Measles in CV-1; type: cell-based; conditions: Measles morbillivirus
Flu A = test: organism not typed; type: cell-based
Flu A (H3N2) = test: microbe, parasite or virus in culture; type: cell-based
HCMV = test: CPE assay, HCMV in HFF cells; type: cell-based, human cytomegalovirus; conditions: Human betaherpesvirus 5
Flu A (H1N1) = test: microbe, parasite or virus in culture; type: cell-based; conditions: Influenza A virus, H1N1, MDCK
RSV A = test: antiviral assay, RSV A in MA-104; type: cell-based; conditions: human respiratory syncytial virus, MA104, RSV A
Rhinovirus = test: antiviral assay, Rhinovirus in HeLa Ohio-1; type: cell-based; conditions: Enterovirus, HeLa Ohio1, RV, HO-1
SARS = test: organism not typed; type: cell-based; conditions: Vero 76
HSV-1 = test: CPE assay, HSV-1 in HFF cells; type: cell-based, herpes simplex virus type 1; conditions: Human alphaherpesvirus 1
VZV = test: CPE assay, VZV in HFF cells; type: cell-based, varicella zoster virus; conditions: Human alphaherpesvirus 3
Flu A (H5N1) = test: microbe, parasite or virus in culture; type: cell-based
Hepatitis B Virus [3] = test: in vitro anti-HBV activity, VIR (extracellular virion HBV DNA); type: cell-based
Protocol: (§1) In the first biological experiment, a number of 7-deazaneplanocin compounds were tested in vitro to determine activity against hepatitis B virus (HBV).

Yellow Fever = test: organism not typed; type: cell-based; conditions: Vero
HSV-2 = test: CPE assay, HSV-2 in HFF cells; type: cell-based, herpes simplex virus type 2; conditions: Human alphaherpesvirus 2
[4] = toxicity (CC50) in the anti-HBV test; type: cell-based
Hepatitis B Virus [5] = test: in vitro anti-HBV activity, RI (intracellular HBV DNA replication intermediates); type: cell-based
Protocol: as §1

[6] = test system: vacinnia, cowpox and SARS viruses; type: cell-based
cowpox virus = type: cell-based; conditions: against cowpox virus
vacinnia virus = type: cell-based; conditions: against vacinnia virus
[7] = HT20, HT @ 20 μM, read-out: EC50
[8] = VIR: extracellular virion HBV DNA
[9] = Hepatitis B virus, VIR: extracellular virion HBV DNA

Nc1ncnc2c1c(F)cn2[C@@H]1C=C(CO)C(O)C1O (stereo partly shown)
Activity (% inhibition virus control) (HCV RNA replicon): 9.5%
outcome of primary test (HCV RNA replicon): Inactive in primary, single-dilution test
Cytotoxicity (% cell control) [1]: 112.7%

Nc1ncnc2c1c(Cl)cn2[C@@H]1C=C(CO)C(O)C1O (stereo partly shown)
EC50 (HCV RNA replicon; HT @ 100 μM): 14.7 µM
Activity (% inhibition virus control) (HCV RNA replicon): 70.6%
IC50 ([1]; HT @ 100 μM): 50.1 µM
Cytotoxicity (% cell control) [1]: 81.2%

Nc1ncnc2c1c(Br)cn2[C@@H]1C=C(CO)C(O)C1O (stereo partly shown)
EC50 (HCV RNA replicon; [7]): 10.5 µM
EC50 (HCV RNA replicon; HT @ 100 μM, read-out: EC50): 16.7 µM
Activity (% inhibition virus control) (HCV RNA replicon): 80.9%
IC50 ([1]; HT20, HT @ 20 μM): > 20 µM
IC50 ([1]; HT @ 100 μM): 41.7 µM
Cytotoxicity (% cell control) [1]: 76.3%

Nc1ncnc2c1c(I)cn2[C@@H]1C=C(CO)C(O)C1O (stereo partly shown)
EC50 (HCV RNA replicon; HT @ 5 μM, read-out: EC50): 3.07 µM
EC50 (HCV RNA replicon; HT @ 100 μM, read-out: EC50): 2.14 µM
Activity (% inhibition virus control) (HCV RNA replicon): 89.7%
IC50 ([1]; HT @ 5 μM): > 5 µM
IC50 ([1]; HT @ 100 μM): 15 µM
Cytotoxicity (% cell control) [1]: 35.2%

Nc1ncnc2c1c([N+](=O)[O-])cn2[C@@H]1C=C(CO)C(O)C1O (stereo partly shown)
Activity (% inhibition virus control) (HCV RNA replicon): 31.5%
Cytotoxicity (% cell control) [1]: 101.5%

N#Cc1cn([C@@H]2C=C(CO)C(O)C2O)c2ncnc(N)c12 (stereo partly shown)
Activity (% inhibition virus control) (HCV RNA replicon): 0.5%
outcome of primary test (HCV RNA replicon): Inactive in primary, single-dilution test
Cytotoxicity (% cell control) [1]: 103.3%

NC(=O)c1cn([C@@H]2C=C(CO)C(O)C2O)c2ncnc(N)c12 (stereo partly shown)
EC50 (HCV RNA replicon; HT not given, read-out: EC50): 1.85 µM
Activity (% inhibition virus control) (HCV RNA replicon): 93.5%
IC50 ([1]; HT not given): 11.8 µM
Cytotoxicity (% cell control) [1]: 44.2%

C=Cc1cn([C@@H]2C=C(CO)C(O)C2O)c2ncnc(N)c12 (stereo partly shown)
Activity (% inhibition virus control) (HCV RNA replicon): 49.2%
Cytotoxicity (% cell control) [1]: 99.7%

Nc1nc2c(ccn2[C@@H]2C=C(CO)C(O)C2O)c(=O)[nH]1 (stereo partly shown)
Activity (% inhibition virus control) (HCV RNA replicon): 10.1%
outcome of primary test (HCV RNA replicon): Inactive in primary, single-dilution test
Cytotoxicity (% cell control) [1]: 99.8%

1-(4,5-Dihydroxy-3-hydroxymethyl-cyclopenten-2-enyl)-1H-[1,2,4]triazole-3-carboxylic acid amide [Compound 17a]
EC50 (SARS virus): 21 µM

7-Deaza-7-Amino-Neplanocin A [Compound 23]
stability [2]: not stable; also recorded: slowly decomposed in room temperature

Nc1ncnc2c1ccn2[C@@H]1C=C(CO)[C@@H](O)[C@H]1O [7-deaza neplanocin A]
CC50 (HFF cells): > 300 µM
cytotoxicity (none up to) (HFF cells): > 300 µM
EC90 (Vaccinia; Vaccinia, HFF cells, CPE reduction assay): 21.5 µM
EC50 (Vaccinia; Vaccinia, HFF cells, CPE reduction assay, read-out: EC50): 3.4 µM
EC90 (Cowpox; Cowpox, HFF cells, CPE reduction assay): 4.6 µM
EC50 (Cowpox; Cowpox, HFF cells, CPE reduction assay, read-out: EC50): 1.2 µM

CC(C)(C)C(=O)OCOP(=O)(COCCn1cnc2c(N)ncnc21)OCOC(=O)C(C)(C)C [ADV]
EC50 (HBV strain WT): 1.3 µM
EC90 (HBV strain WT): 6 µM

Nc1ccn(C[C@@H](CO)OCP(=O)(O)O)c(=O)n1 [Cidofovir, reference compound]
EC50 (Vaccinia; Orthopoxvirus vaccinia, HFF): 4 µM
EC50 (Cowpox; Cowpox virus, HFF): 5 µM

Nc1nccc2c1ncn2[C@@H]1C=C(CO)[C@@H](O)[C@H]1O [Compound 3-DNPA, (−)-1-[(1R,4R,5S)-3-(Hydroxymethyl)-4,5-dihydroxy-2-cyclopenten-1-yl]-4-aminoimidazo[4,5-c]pyridine Hydrochloride]
EC50 (PIV; MA104, NR): > 100 µM
EC50 (PIV; Visual): > 100 µM
EC50 (Adeno; NR): 17 µM
EC50 (Adeno; Visual): 24 µM
EC50 (Measles; NR): 0.4 µM
EC50 (Measles; Visual): 0.9 µM
EC50 (Flu A): > 100 µM
EC50 (Flu A (H3N2); Flu A (H3N2), Visual, MDCK): > 100 µM
EC50 (Flu A (H3N2); Influenza A virus, H3N2, MDCK): > 100 µM
EC50 (HCV RNA replicon; Huh7 ET, HCV, HRR (HCV RNA replicon), Huh7 ET, read-out: EC50): 1.44 µM
EC50 (HCMV): 0.36 µM
EC50 (Flu A (H1N1); NR): > 25 µM
EC50 (Flu A (H1N1); Visual): > 100 µM
EC50 (RSV A; NR): 4 µM
EC50 (RSV A; Visual): 100 µM
EC50 (Rhinovirus; NR): 4 µM
EC50 (Rhinovirus; Visual): 32 µM
EC50 (Vaccinia; Orthopoxvirus vaccinia, HFF): 2.9 µM
EC50 (SARS; SARS, Visual): > 100 µM
EC50 (SARS): > 100 µM
EC50 (HSV-1): > 300 µM
EC50 (VZV): > 300 µM
EC50 (Flu A (H5N1); Flu A (H5N1), Visual, MDCK): > 100 µM
EC50 (Flu A (H5N1); Influenza A virus, H5N1, MDCK): > 100 µM
EC50 (Cowpox; Cowpox virus, HFF): 182 µM
EC50 (Hepatitis B Virus [3]; Hepatitis B virus, HBV, VIR, Huh7 ET (Table 3)): 0.59 µM
EC50 (Yellow Fever): > 100 µM
EC50 (Yellow Fever; YF, Visual): > 100 µM
EC50 (HSV-2): 43.5 µM

Nc1ccn([C@@H]2CS[C@H](CO)O2)c(=O)n1 [Compound 3TC]
EC50 (HBV strain WT): 0.2 µM
EC90 (HBV strain WT): 0.6 µM

Nc1ncnc2c1c(F)cn2[C@@H]1C=C(CO)[C@@H](O)[C@H]1O [Compound 10]
CC50 [4]: > 300 µM
EC50 (Hepatitis B Virus [3]; [8]): > 10 µM
EC90 (Hepatitis B Virus [3]; [8]): > 10 µM

Nc1ncnc2c1c(Cl)cn2[C@@H]1C=C(CO)[C@@H](O)[C@H]1O [Compound 11, 7-Deaza-7-Chloro Neplanocin A]
CC50 [4]: > 300 µM
EC50 (Hepatitis B Virus [3]; [8]): > 10 µM
EC90 (Hepatitis B Virus [3]; [8]): > 10 µM

Nc1ncnc2c1c(Br)cn2[C@@H]1C=C(CO)[C@@H](O)[C@H]1O [Compound 12, 7-Deaza-7-Bromo Neplanocin A]
CC50 [4]: > 300 µM
EC50 (Hepatitis B Virus [3]; [8]): > 10 µM
EC90 (Hepatitis B Virus [3]; [8]): > 10 µM

Nc1ncnc2c1c(I)cn2[C@@H]1C=C(CO)[C@@H](O)[C@H]1O [Compound 13, 7-Deaza-7-Iodo Neplanocin A]
EC50 (Hepatitis B Virus [5]): 1.6 µM
EC90 (Hepatitis B Virus [5]): 5.9 µM
CC50 [4]: > 300 µM
EC50 (Hepatitis B Virus [3]; [8]): 0.431 µM
EC90 (Hepatitis B Virus [3]; [8]): 1.8 µM

N#Cc1cn([C@@H]2C=C(CO)[C@@H](O)[C@H]2O)c2ncnc(N)c12 [Compound 17, 7-Deaza-7-Cyano-Neplanocin A]
CC50 [4]: > 300 µM
EC50 (Hepatitis B Virus [3]; [8]): > 10 µM
EC90 (Hepatitis B Virus [3]; [8]): > 10 µM

NC(=O)c1cn(C2C=C(CO)C(O)C2O)cn1 (stereo not shown) [Compound 17b, 1-(4,5-Dihydroxy-3-hydroxymethyl-cyclopenten-2-enyl)-1H-imidazole-4-carboxylic acid amide]
antiviral activity [6]: did not show any significant antiviral activity

NC(=O)c1cn(C2C=C(CO)C(O)C2O)nn1 (stereo not shown) [Compound 17c, 1-(4,5-Dihydroxy-3-hydroxymethyl-cyclopenten-2-enyl)-1H-[1,2,3]triazole-4-carboxylic acid amide]
EC50 (SARS virus): 47 µM
EC50 (cowpox virus): 39 µM
EC50 (vacinnia virus): 0.4 µM

NC(=O)c1cn([C@@H]2C=C(CO)[C@@H](O)[C@H]2O)c2ncnc(N)c12 [Compound 18, 7-Deaza-7-Amido-Neplanocin A]
CC50 [4]: > 300 µM
EC50 (Hepatitis B Virus [3]; [8]): > 10 µM
EC90 (Hepatitis B Virus [3]; [8]): > 10 µM

Nc1ncnc2c1c([N+](=O)[O-])cn2[C@@H]1C=C(CO)[C@H](O)C1O (stereo partly shown) [Compound 22, 7—Deaza-7-Nitro-Neplanocin A]
melting point: 245 to 246 °C
CC50 [4]: > 300 µM
EC50 (Hepatitis B Virus [3]; [9]): > 10 µM
EC90 (Hepatitis B Virus [3]; [9]): > 10 µM

C=Cc1cn([C@@H]2C=C(CO)[C@H](O)C2O)c2ncnc(N)c12 (stereo partly shown) [Compound 25, 7-Deaza-7-Vinyl-Substituted Neplanocin A]
EC50 (Hepatitis B Virus [5]; Hepatitis B virus): 10 µM
EC90 (Hepatitis B Virus [5]; Hepatitis B virus): 26 µM
melting point: 168 to 170 °C
CC50 [4]: > 300 µM
EC50 (Hepatitis B Virus [3]; [9]): 3.3 µM
EC90 (Hepatitis B Virus [3]; [9]): 9.1 µM

C#Cc1cn([C@@H]2C=C(CO)C(O)C2O)c2ncnc(N)c12 (stereo partly shown) [Compound 27, 7-Deaza-7-Acetylene-Neplanocin A]
EC50 (Hepatitis B Virus [5]; Hepatitis B virus): 1.8 µM
EC90 (Hepatitis B Virus [5]; Hepatitis B virus): 7.9 µM
melting point: 126 to 128 °C
EC50 (HBV strain WT; Hepatitis B virus): 2.5 µM
EC90 (HBV strain WT; Hepatitis B virus): 8.7 µM
CC50 [4]: > 300 µM
EC50 (Hepatitis B Virus [3]; [9]): 0.315 µM
EC90 (Hepatitis B Virus [3]; [9]): 1.6 µM

C#Cc1cn([C@@H]2C=C(CO)C(O)C2O)c2ncnc(N)c12 (stereo partly shown) [drawing 37]
EC50 (HCV RNA replicon; [7]): 12.3 µM
EC50 (HCV RNA replicon; HT @ 100 μM, read-out: EC50): 20.1 µM
Activity (% inhibition virus control) (HCV RNA replicon): 73.3%
IC50 ([1]; HT20, HT @ 20 μM): > 20 µM
IC50 ([1]; HT @ 100 μM): 48.9 µM
Cytotoxicity (% cell control) [1]: 86.6%
